The record followed here is ChEMBL document CHEMBL1137435, “Synthesis and application of 2'-fluoro-substituted cap analogs” (Bioorg Med Chem Lett, 2007).

The nature of this assay: Capping efficiency on mRNA after 2 hrs by gel shift assay. In general terms: A gel shift assay detects complexes by their altered migration in electrophoresis.

Take `C[n+]1cn([C@H]2O[C@@H](COP(=O)([O-])OP(=O)(O)OP(=O)(O)OC[C@H]3O[C@@H](n4cnc5c(=O)[nH]c(N)nc54)[C@H](O)[C@@H]3O)[C@H](O)[C@@H]2O)c2nc(N)[nH]c(=O)c21`: the Activity was 61%.
With `C[n+]1cn([C@H]2O[C@@H](COP(=O)([O-])OP(=O)(O)OP(=O)(O)OC[C@H]3O[C@@H](n4cnc5c(=O)[nH]c(N)nc54)[C@H](O)[C@@H]3O)[C@H](O)[C@@H]2F)c2nc(N)[nH]c(=O)c21` the figure was 70%.
For `C[n+]1cn([C@@H]2O[C@H](COP(=O)([O-])OP(=O)([O-])OP(=O)(O)OC[C@@H]3O[C@H](n4c[n+](C)c5c(=O)[nH]c(N)nc54)[C@@H](F)[C@H]3O)[C@@H](O)[C@H]2O)c2nc(N)[nH]c(=O)c21` the value was 52%.
